Reference: patent publication US11548891B1, “Quaternary ammonium salts of phenanthroindolizidine and phenanthroquinolizidine alkaloids as hypoxia-targeted anticancer agents” (BATTERJEE MEDICAL COLLEGE, priority 2022, dated 2023)
Like-named read-outs stand apart in the source and are kept apart here.

Key:
[1] = tested on: HCT116; experiment: Cytotoxicity under normoxia (MTT), HCT116; format: cell-based, human; settings: Homo sapiens, HCT-116, read-out: IC50 HCT116
Protocol: (§1) The cytotoxicity of the compounds 5a-c and their parent alkaloids was evaluated by the 3-[4,5-dimethylthiazole-2-yl]-2,5-diphenyltetrazolium bromide (MTT) assay against 5 cancerous and 2 non-cancerous cell lines (Table 4).
(§2) The eight cell lines HEK293 (Human embryonic kidney 293), CHO-Kt (Chinese hamster ovary K1), MCF-7 cells (Human breast adenocarcinoma), HCT116 (human colorectal carcinoma), RKO (Human rectal carcinoma), SW480 (human colorectal carcinoma), H460 (Human lung cancer), and MRCS (Normal human fetal lung fibroblast), were obtained from the ATCC. The cell lines were routinely grown in alpha minimum essential medium (α-MEM) containing 5% fetal calf serum (FCS). The appropriate number of cells (HCT116=400 cells/well, H460 cells=600 cells/well) were seeded into 96-well plates under normoxic or hypoxic conditions. Cells were plated in 100 μL α-MEM containing 10% FCS, 10 mM D-Glucose and 0.2 mM 20-deoxycytidine. After incubation for 2 h, the compounds were added at the appropriate concentration and incubated for further 4 h. The cells were then washed three times with drug-free α-MEM (containing 5% FCS and pen/strep). The plates were then incubated for 5 days under normoxic conditions. The cells were stained with sulphorhodamine B to measure total cells as per the standard procedure described in Skehan, et. al. [Skehan, P., et. al., J. Natl. Cancer Inst., 1990, 82, 1107-1112, incorporated herein by reference in its entirety]. The IC50 was determined by interpolation as the compound concentration reducing staining to 50% of controls on the same plate as per the standard procedure described in Guise, et. al. [Guise, C. P., et. al., Biochem. Pharmacol., 2007, 74, 810-820, incorporated herein by reference in its entirety].

[2] = tested on: HEK293; experiment: Cytotoxicity under normoxia (MTT), HEK293; format: cell-based, Human; settings: Homo sapiens, HEK293, read-out: IC50 HEK293
Protocol: as §1, §2

[3] = PBS (pH 7.4) solubility; format: physicochemical
Protocol: (§3) Water solubility, log D, and PAMPA-BBB were evaluated using the protocols as described in Omran, et. al. [Omran, Z., et. al., Chem. Pharm. Bull., 2019, 67, 1208-1210, incorporated herein by reference in its entirety].

[4] = tested on: MCF7; experiment: Cytotoxicity under normoxia (MTT), MCF7; format: cell-based, Human; settings: Homo sapiens, MCF7, read-out: IC50 MCF7
Protocol: as §1, §2

[5] = tested on: MRC5; experiment: Cytotoxicity under normoxia (MTT), MRC5; format: cell-based, human; settings: Homo sapiens, MRC5, read-out: IC50 MRC5
Protocol: as §1, §2

[6] = tested on: H460; experiment: Cytotoxicity under normoxia and hypoxia (anaerobic chamber), H460; format: cell-based, Human; settings: for IC50: 4 h exposure
Protocol: (§4) The ability of the designed prodrugs to liberate the active alkaloids in hypoxic tumors was evaluated by testing them under hypoxic conditions using an anaerobic chamber. The three prodrugs 5a-c and their parent alkaloids as well as the reference compounds PR-104A, the parent alcohol form of the phosphate pre-prodrug PR-104, and evofosfamide were tested using the HCT116 and H460 cell lines under both normoxic and hypoxic conditions (Table 5). The prodrugs were much less cytotoxic than the parent drugs, in agreement with the results using the other cell lines described above (see FIG. 6).
as §2

[7] = tested on: CHO-K1; experiment: Cytotoxicity under normoxia (MTT), CHO-K1; format: cell-based, Chinese hamster; settings: Cricetulus griseus, CHO-K1, read-out: IC50 CHO-K1
Protocol: as §1, §2

[8] = BBB-Parallel Artificial Membrane Permeability Assay (BBB-PAMPA); format: in vitro ADME
Protocol: The physicochemical properties of the new compounds were evaluated (Table 1). […] Consequently, these derivatives lost their BBB penetrability, as predicted by the BBB-Parallel Artificial Membrane Permeability Assay (BBB-PAMPA), whereas their parent alkaloids had free passage through the BBB.
as §3

[9] = LogD; format: physicochemical
Protocol: as §3

[10] = Mouse microsomal liver stability assay; settings: male, Balb/c, mouse, 2 μM, pH 7.4
Protocol: Protoc. […] Microsomal incubations were carried out in 96-well plates in 5 aliquots of 40 μL each. […] Control incubations were performed by replacing the NADPH-cofactor system with PBS. The additional control incubations in PBS (with 3.3 mM MgCl2) without added microsomes were carried out in this study. […] The incubations were performed in duplicates. Five time points over 40 min had been analyzed. The reactions were stopped by adding 12 volumes of 90% acetonitrile-water to incubation aliquots, followed by protein sedimentation by centrifuging at 5500 rpm for 3 min. The supernatants were analyzed using LC-MS as mentioned above.

[11] = tested on: RKO; experiment: Cytotoxicity under normoxia (MTT), RKO; format: cell-based, Human; settings: Homo sapiens, RKO, read-out: IC50 RKO
Protocol: as §1, §2

[12] = tested on: HCT116; experiment: Cytotoxicity under normoxia and hypoxia (anaerobic chamber), HCT116; format: cell-based, human; settings: for IC50: 4 h exposure
Protocol: as §4, §2

[13] = tested on: SW480; experiment: Cytotoxicity under normoxia (MTT), SW480; format: cell-based, human; settings: Homo sapiens, SW480, read-out: IC50 SW480
Protocol: as §1, §2

[14] = Homo sapiens, NCI-H460, H460, hypoxia, read-out: IC50 (Hypoxia)
[15] = Homo sapiens, NCI-H460, H460, normoxia, read-out: IC50 (Normoxia)
[16] = Homo sapiens, HCT-116, HTC 116, hypoxia, read-out: IC50 (Hypoxia)
[17] = Homo sapiens, HCT-116, HTC 116, normoxia, read-out: IC50 (Normoxia)

Question: With `COc1cc2c3c(c4cc(OC)c(OC)cc4c2cc1OC)C[N+]1(Cc2c([N+](=O)[O-])ncn2C)CCC[C@H]1C3.[Br-]` (stereo partly drawn) [Compound 5b, (13aS)-2,3,6,7-tetramethoxy-10-((1-methyl-4-nitro-1H-imidazol-5-yl)methyl)-10,11,12,13,13a, 14-hexahydro-9H-dibenzo[f,h]pyrrolo[1,2-b]isoquinolin-10-ium bromide] as the molecule, how does the IC50 [1] read?
Answer: 3.3 ± 1.56 µM

Question: And the IC50 [2]?
Answer: 0.95 ± 0.174 µM

Question: What about the “PBS (pH 7.4) Solubility μM Mean ± SE” value [3] of the same molecule?
Answer: 162 ± 3 μM

Question: What about the IC50 [4] of the same molecule?
Answer: 1.5 ± 0.128 µM

Question: What about the IC50 [5] of the same molecule?
Answer: 3.31 ± 0.163 µM

Question: What about the “HCR (Hypoxia Cytotoxicity Ratio = normoxic IC50/hypoxic IC50)” value [6] of the same molecule?
Answer: 24

Question: And the “DR (Deactivation Ratio = IC50 (prodrug)/IC50 (parent drug))” value ([6]; H460, normoxia)?
Answer: 719

Question: And the IC50 [6, 14]?
Answer: 3.22 µM

Question: And the IC50 [6, 15]?
Answer: 77.6 µM

Question: What about the IC50 [7] of the same molecule?
Answer: 3.49 ± 0.843 µM

Question: And the “Permeability (Papp) Log [10^−6 cm/s] Mean ± SE” value [8]?
Answer: <−7 Log [10^−6 cm/s]

Question: And the “LogD Mean ± SE” value [9]?
Answer: 0.38 ± 0.04

Question: And the “Kel, min^−1 (elimination rate constant)” value [10]?
Answer: 0.002 ± 0 min⁻¹

Question: What about the “compound metabolized into the parent drug” value ([10]; microsomes) of the same molecule?
Answer: less than 1%

Question: And the IC50 [11]?
Answer: 4.06 ± 0.181 µM

Question: And the melting point?
Answer: 165 to 167 °C

Question: And the “HCR (Hypoxia Cytotoxicity Ratio = normoxic IC50/hypoxic IC50)” value [12]?
Answer: 11.3

Question: What about the “DR (Deactivation Ratio = IC50 (prodrug)/IC50 (parent drug))” value ([12]; HTC 116, normoxia) of the same molecule?
Answer: 689

Question: And the IC50 [12, 16]?
Answer: 1.46 µM

Question: And the IC50 [12, 17]?
Answer: 4.49 µM

Question: And the IC50 [13]?
Answer: 7.25 ± 0.49 µM

Question: For `COc1cc2c3c(c4cc(OC)c(OC)cc4c2cc1OC)C[N+]1(Cc2c([N+](=O)[O-])ncn2C)CCC[C@@H]1C3.[Br-]` (stereo partly drawn) [Compound 5c, (13aR)-2,3,6,7-tetramethoxy-10-((1-methyl-4-nitro-1H-imidazol-5-yl)methyl)-10,11,12,13,13a, 14-hexahydro-9H-dibenzo[f,h]pyrrolo[1,2-b]isoquinolin-10-ium bromide], which IC50 [1] is on record?
Answer: 9.02 ± 1.13 µM

Question: What about the IC50 [4] of the same molecule?
Answer: 8.05 ± 0.343 µM

Question: And the IC50 [5]?
Answer: 3.94 ± 0.127 µM

Question: And the “HCR (Hypoxia Cytotoxicity Ratio = normoxic IC50/hypoxic IC50)” value [6]?
Answer: 7.8

Question: What about the “DR (Deactivation Ratio = IC50 (prodrug)/IC50 (parent drug))” value ([6]; H460, normoxia) of the same molecule?
Answer: 293

Question: What about the IC50 [6, 14] of the same molecule?
Answer: 6.5 µM

Question: And the IC50 [6, 15]?
Answer: 51 µM

Question: What about the IC50 [11] of the same molecule?
Answer: 8.82 ± 3.08 µM

Question: And the melting point?
Answer: 185 to 187 °C

Question: What about the “HCR (Hypoxia Cytotoxicity Ratio = normoxic IC50/hypoxic IC50)” value [12] of the same molecule?
Answer: 1.5

Question: And the “DR (Deactivation Ratio = IC50 (prodrug)/IC50 (parent drug))” value ([12]; HTC 116, normoxia)?
Answer: 128

Question: And the IC50 [12, 16]?
Answer: 3.02 µM

Question: What about the IC50 [12, 17] of the same molecule?
Answer: 9.05 µM

Question: What about the IC50 [13] of the same molecule?
Answer: 9.86 ± 1.69 µM

Question: For `Cn1c(COP(=O)(NCCBr)NCCBr)cnc1[N+](=O)[O-]` [Evofosfamide, evofosfamide], which “HCR (Hypoxia Cytotoxicity Ratio = normoxic IC50/hypoxic IC50)” value ([6]; H460) is on record?
Answer: 251

Question: And the IC50 [6, 14]?
Answer: 0.0172 µM

Question: And the IC50 [6, 15]?
Answer: 4.32 µM

Question: What about the “HCR (Hypoxia Cytotoxicity Ratio = normoxic IC50/hypoxic IC50)” value ([12]; HTC 116) of the same molecule?
Answer: 85

Question: And the IC50 [12, 16]?
Answer: 0.0201 µM

Question: What about the IC50 [12, 17] of the same molecule?
Answer: 0.0239 µM

Question: With `COC(=O)Nc1nc2ccc(C(=O)c3ccccc3)cc2[nH]1` [Mebendazole] as the molecule, how does the “LogD Mean ± SE” value [9] read?
Answer: 3.26 ± 0.01

Question: For `Cc1nccn1CC1CCc2c(c3ccccc3n2C)C1=O` (centres unmarked) [Ondansetron], which “PBS (pH 7.4) Solubility μM Mean ± SE” value [3] is on record?
Answer: 96 ± 3 μM

Question: Which “HCR (Hypoxia Cytotoxicity Ratio = normoxic IC50/hypoxic IC50)” value ([6]; H460) does the source give for `CS(=O)(=O)OCCN(CCBr)c1c(C(=O)NCCO)cc([N+](=O)[O-])cc1[N+](=O)[O-]` [PR-104A] here?
Answer: 2.5

Question: What about the IC50 ([6]; H460, hypoxia, read-out: IC50 (Hypoxia)) of the same molecule?
Answer: 0.533 µM

Question: What about the IC50 ([6]; H460, normoxia, read-out: IC50 (Normoxia)) of the same molecule?
Answer: 1.34 µM

Question: What about the “HCR (Hypoxia Cytotoxicity Ratio = normoxic IC50/hypoxic IC50)” value ([12]; HTC 116) of the same molecule?
Answer: 10.5

Question: And the IC50 ([12]; HTC 116, hypoxia, read-out: IC50 (Hypoxia))?
Answer: 0.861 µM

Question: What about the IC50 ([12]; HTC 116, normoxia, read-out: IC50 (Normoxia)) of the same molecule?
Answer: 16.5 µM

Question: Which “Permeability (Papp) Log [10^−6 cm/s] Mean ± SE” value [8] does the source give for `CNC(=C[N+](=O)[O-])NCCSCc1ccc(CN(C)C)o1` [Ranitidine] here?
Answer: <−7 Log [10^−6 cm/s]
